In PMC10178769, “A Facile Synthesis and Molecular Characterization of Certain New Anti-Proliferative Indole-Based Chemical Entities” (International Journal of Molecular Sciences, 2023):

Experiments:
[1] = MTT assay, toxicity on normal cells WI38; type: cell-based, human; settings: WI-38 lung fibroblast cells (non-tumorigenic); MTT, 48 h, non-tumorigenic human lung cell line; read-out: Cytotoxicity IC50 WI38
Procedure: (§1) The cancer cell growth inhibitory activity of the synthesized compound was tested against three human cancer cell lines, namely, breast cancer (MCF-7), colon cancer (HCT116) and lung cancer (A549), as well as non-tumorigenic human lung cell line (WI38) to estimate the selectivity for tumor cells.
(§2) Anti-proliferative activity in compounds 4a–q were tested in three cancerous cell lines (MCF-7 breast cancer cells, A549 lung carcinoma, HCT human colon cancer cells) and in WI-38 human lung fibroblast cells. Cells were plated at a density of 1.2–1.8 × 10,000 cells/well in a volume of 100 µL complete growth medium and were incubated at 37 °C for 24 h. Cells were then treated with serially diluted tested compound and incubated at 37 °C for 48 h. Twenty microliters of 3-(4,5-dimethylthiazol-2-yl)-2,5-diphenyltetrazolium bromide (MTT) (2.5 mg/mL) dissolved in PBS were added to the cells and cells were further incubated for 4 h at 37 °C. To dissolve formazan crystals, MTT solutions were completely removed and 100 μL DMSO was added. The absorbance was detected at 540 nm using a Spectramax 250 microplate reader (Molecular device, San Jose, CA, USA), and viability (%) was calculated as [optical density (OD) of treated group/OD of control group] × 100.

[2] = tested on: A549 lung carcinoma cells; assay: MTT assay, antiproliferative activity, A549; type: cell-based; settings: Homo sapiens, 48 h, read-out: Cytotoxicity IC50 A549
Procedure: as §1, §2

[3] = tested on: HCT116 colon cancer cells; assay: MTT assay, antiproliferative activity, HCT116; type: cell-based; settings: Homo sapiens, HCT-116, 48 h, read-out: Cytotoxicity IC50 HCT116
Procedure: as §1, §2

[4] = tested on: MCF-7 breast cancer cells; assay: MTT assay, antiproliferative activity, MCF-7; type: cell-based; settings: Homo sapiens, MCF7, 48 h, read-out: Cytotoxicity IC50 MCF7
Procedure: as §1, §2

MCF-7 cells [5] = assay: Annexin V-FITC apoptosis flow cytometry; type: cell-based, human; settings: 10 μm, 48 h
Procedure: To detect the apoptotic potential of our compound of choice, 4e, an Annexin V-FITC Apoptosis Detection Kit (BioVision, Mountain View, CA, USA) was used based on the manufacturer’s protocol using a dose of 10 μm for 48 h.

[6] = tested on: WI-38 human lung fibroblast cells; assay: MTT assay, toxicity on normal cells WI38; type: cell-based; settings: WI38 versus cancer cells
Procedure: as §1, §2

MCF-7, A549, and HCT = assay: MTT assay, cytotoxicity over the three cancer cell lines; type: cell-based; settings: Homo sapiens, average over MCF-7, HCT116, A549, 48 h
Procedure: as §1, with “The title compounds 4a–q were subjected to MTT assay to determine their cytotoxicity, and their in vitro antiproliferative activity was examined as well. The” for “The”, “cells. Staurosporine was used as a reference drug.” for “cells.”
as §2, with “To dissolve formazan crystals, MTT solutions were completely removed and 100 μL DMSO was added.” left out

MCF-7 cells [7] = assay: Cell cycle analysis, propidium iodide flow cytometry; type: cell-based, human; settings: 10 µm, 48 h, control 34.72%
Procedure: To evaluate if the antiproliferative effect of 4e was due to the disturbance of the cell cycle, cells were treated with 10 µm for 48 h. […] Therefore, it is possible that the antiproliferative effect of 4e is due to S-phase cell cycle arrest.
To detect cell cycle status after treating cells with 4e, 1 × 10^6 cells were cultured in six-well plates for twenty-four hours per cell and were then treated with 10 μm of 4e for 48 h. Cells were then washed with phosphate-buffered saline. Cells were then fixed with 70% of cold ethanol and kept at 4 °C overnight. Cell analysis was then analyzed following the manifacorere protocol, using a Propidium Iodide Flow Cytometry Kit for Cell Cycle Analysis (Abcam, Waltham, MA, USA).

melting point [°C] | Compound | IC50 at 48 h [1] [µM] | IC50 [2] [µM] | IC50 [3] [µM] | IC50 [4] [µM] | Annexin-V and 7-AAD positive cell populations (MCF-7 cells [5]) | selectivity against non-tumorigenic cell line (WI38) (in words) [6] | IC50 (MCF-7, A549, and HCT) [µM] | cell population in the S phase (MCF-7 cells [7]) [%]
233 | NN(Cc1ccc(Cl)cc1)C(=O)c1cc2ccccc2[nH]1 [4a, N-(4-Chlorobenzyl)-1H-indole-2-carbohydrazide] | 66.2 ± 3.75 | 5.9 ± 0.32 | 41.3 ± 1.98 | 21.7 ± 1.04 |  |  |  | 
237 | NN(Cc1ccccc1)C(=O)c1cc2ccccc2[nH]1 [4c, N-Benzyl-1H-indole-2-carbohydrazide] | 50.4 ± 2.86 | 25.3 ± 1.38 | 32.5 ± 1.56 | 62 ± 2.97 |  |  |  | 
210 | COc1ccc2[nH]c(C(=O)N(N)Cc3ccccc3)cc2c1 [4d, N-Benzyl-5-methoxy-1H-indole-2-carbohydrazide] | 95.2 ± 5.39 | 5.69 ± 0.31 | 66.2 ± 3.17 | 3.23 ± 0.16 |  |  |  | 
209 | NN(Cc1ccc(F)cc1)C(=O)c1cc2ccccc2[nH]1 [4g, N-(4-Fluorobenzyl)-1H-indole-2-carbohydrazide] | 117 ± 6.65 | 17 ± 0.93 | 12.3 ± 0.59 | 8.31 ± 0.4 |  |  |  | 
202 | N#Cc1ccc(CN(N)C(=O)c2cc3ccccc3[nH]2)cc1 [4k, N-(4-Cyanobenzyl)-1H-indole-2-carbohydrazide] | 30.8 ± 1.74 | 2.65 ± 0.14 | 39.1 ± 1.88 | 9.21 ± 0.44 |  |  |  | 
238 | NN(Cc1ccc(Br)cc1)C(=O)c1cc2ccccc2[nH]1 [4m, N-(4-Bromobenzyl)-1H-indole-2-carbohydrazide] | 46.1 ± 2.61 | 12.9 ± 0.7 | 17.5 ± 0.84 | 62.9 ± 3.01 |  |  |  | 
223 | NN(Cc1ccc([N+](=O)[O-])cc1)C(=O)c1cc2ccccc2[nH]1 [4o, N-(4-Nitrobenzyl)-1H-indole-2-carbohydrazide] | 86 ± 4.87 | 22.3 ± 1.21 | 2.41 ± 0.12 | 3.66 ± 0.18 |  |  |  | 

Further lines, the compound ahead of its results:

Compound | melting point [°C] | IC50 at 48 h [1] [µM] | IC50 [2] [µM] | IC50 [3] [µM] | IC50 [4] [µM] | Annexin-V and 7-AAD positive cell populations (MCF-7 cells [5]) | selectivity against non-tumorigenic cell line (WI38) (in words) [6] | IC50 (MCF-7, A549, and HCT) [µM] | cell population in the S phase (MCF-7 cells [7]) [%]
COc1ccc2[nH]c(C(=O)N(N)Cc3ccc(Cl)cc3)cc2c1 [4b, N-(4-Chlorobenzyl)-5-methoxy-1H-indole-2-carbohydrazide] | 225 | 163 ± 9.25 | 49.2 ± 2.68 | 190 ± 9.12 | 11.5 ± 0.55 |  |  |  | 
NN(Cc1cc(C(F)(F)F)cc(C(F)(F)F)c1)C(=O)c1cc2ccccc2[nH]1 [4e, N-(3,5-Bis(trifluoromethyl)benzyl)-1H-indole-2-carbohydrazide] | 204 | 87.2 ± 4.94 | 3.49 ± 0.19 | 1.95 ± 0.09 | 0.57 ± 0.03 | significant increase | exhibited selectivity toward cancer cells | 2 | 48.72
COc1ccc2[nH]c(C(=O)N(N)Cc3cc(C(F)(F)F)cc(C(F)(F)F)c3)cc2c1 [4f, N-(3,5-Bis(trifluoromethyl)benzyl)-5-methoxy-1H-indole-2-carbohydrazide] | 195 | 24.4 ± 1.38 | 8.33 ± 0.45 | 9.79 ± 0.47 | 58.1 ± 2.78 |  |  |  | 
COc1ccc2[nH]c(C(=O)N(N)Cc3ccc(F)cc3)cc2c1 [4h, N-(4-Fluorobenzyl)-5-methoxy-1H-indole-2-carbohydrazide] | 175 | 64.1 ± 3.63 | 23.9 ± 1.3 | 207 ± 9.94 | 13.1 ± 0.63 |  |  |  | 
NN(Cc1ccc(C(F)(F)F)cc1)C(=O)c1cc2ccccc2[nH]1 [4i, N-(4-(Trifluoromethyl)benzyl)-1H-indole-2-carbohydrazide] | 190 | 25.3 ± 1.43 | 11.6 ± 0.63 | 52.2 ± 2.5 | 23.9 ± 1.15 |  |  |  | 
COc1ccc2[nH]c(C(=O)N(N)Cc3ccc(C(F)(F)F)cc3)cc2c1 [4j, N-(4-(Trifluoromethyl)benzyl)-5-methoxy-1H-indole-2-carbohydrazide] | 220 | 97.9 ± 5.54 | 6.78 ± 0.37 | 9.16 ± 0.44 | 3.27 ± 0.16 |  |  |  | 
COc1ccc2[nH]c(C(=O)N(N)Cc3ccc(C#N)cc3)cc2c1 [4l, N-(4-Cyanobenzyl)-5-methoxy-1H-indole-2-carbohydrazide] | 248 | 18.5 ± 1.05 | 26.6 ± 1.45 | 5.02 ± 0.24 | 81.4 ± 3.9 |  |  |  | 
COc1ccc2[nH]c(C(=O)N(N)Cc3ccc(Br)cc3)cc2c1 [4n, N-(4-Bromobenzyl)-5-methoxy-1H-indole-2-carbohydrazide] | 228 | 252 ± 14.3 | 16.7 ± 0.91 | 61 ± 2.92 | 141 ± 6.74 |  |  |  | 
COc1ccc2[nH]c(C(=O)N(N)Cc3ccc([N+](=O)[O-])cc3)cc2c1 [4p, N-(4-Nitrobenzyl)-5-methoxy-1H-indole-2-carbohydrazide] | 213 | 17.4 ± 0.99 | 3.02 ± 0.16 | 19.4 ± 0.93 | 7.01 ± 0.34 |  |  |  | 
COc1ccc2[nH]c(C(=O)N(N)Cc3ccc(C)cc3)cc2c1 [4q, N-(4-Methylbenzyl)-5-methoxy-1H-indole-2-carbohydrazide] | 166 | 56.2 ± 3.18 | 2.4 ± 0.13 | 6.45 ± 0.31 | 1.01 ± 0.05 |  |  | 3.28 ± 2.3 | 
